According to patent US20230225313A1, “Methods and Compositions for Use in Glued-Wood Products” (ARXADA AG, priority 2020, published 2023):
Where two headings read alike, the source gives them in different places.

Experiment: Thermogravimetric analysis (TGA), degradation temperature
Assay type: physicochemical
Experimental: The choice of suitable thermoplastics must also account for the biocide degradation temperature. The temperature of the melted thermoplastic at the point of biocide addition can be any temperature up to the biocide degradation temperature, preferably at least 20° C., and more preferably at least 40° C. below the biocide degradation temperature. Biocide degradation temperatures are most conveniently determined by thermogravimetric analysis (TGA). Unless hot melt mixing is to be performed in an inert atmosphere, TGA should be performed in air to account for oxidative degradation. TGA can be performed according to ISO 11358-1:2014.
Imidacloprid has a degradation temperature of about 274° C. (onset of weight loss, see the thermogravimetric analysis data in FIG. 1). Accordingly, the mixing of imidacloprid with any thermoplastic by hot melt extrusion (HME) should be performed at temperatures less than about 270° C.
Degradation temperatures were established by thermogravimetric analysis (TGA, see FIG. 1) with the following results: bifenthrin 195° C., triadimefon 195° C., and cyproconazole 205° C. These temperatures indicate upper limits for processing these biocides by HME. The melting points for these biocides are: bifenthrin 57-64.6° C., triadimefon 82.3° C., and cyproconazole 106.2-106.9° C.).
“Friable biocide-composites” comprising a biocide, a thermoplastic and an embrittling agent were formed by HME along with a “solidified biocide-composite” comprising a biocide and an embrittling agent, i.e. no thermoplastic. The organoclay Tixogel MP 100 was used as the embrittling agent. Tixogel MP 100 has a thermal degradation temperature of 222° C. measured as onset of weight loss (FIG. 7, note a slight initial loss of moisture). This temperature represents a practical upper limit for HME when using Tixogel MP 100.

Row | SMILES | Degradation temperature (TGA, onset of weight loss) | Degradation temperature
1 | Cc1c(COC(=O)[C@@H]2[C@H](/C=C(\Cl)C(F)(F)F)C2(C)C)cccc1-c1ccccc1 (relative stereo) [bifenthrin, (2-methyl[1,1′-biphenyl]-3-yl)methyl (1R,3R)-rel-3-[(1Z)-2-chloro-3,3,3-trifluoro-1-propen-1-yl]-2,2-dimethylcyclopropanecarboxylate] | 195 °C | 
2 | O=[N+]([O-])NC1=NCCN1Cc1ccc(Cl)nc1 [Imidacloprid, (2E)-1-[(6-chloro-3-pyridinyl)methyl]-N-nitro-2-imidazolidinimin] |  | about 274 °C
3 | CC(C1CC1)C(O)(Cn1cncn1)c1ccc(Cl)cc1 (stereo not drawn) [cyproconazole, α-(4-chlorophenyl)-α-(1-cyclopropylethyl)-1H-1,2,4-triazole-1-ethanol] |  | 205 °C
4 | CC(C)(C)C(=O)C(Oc1ccc(Cl)cc1)n1cncn1 (stereo not shown) [triadimefon, 1-(4-chlorophenoxy)-3,3-dimethyl-1-(1H-1,2,4-triazol-1-yl)-2-butanone] | 195 °C | 
